What was measured:
LNCaP C4-2B = experiment: Cytotoxicity against human C4-2B cells after 72 hrs by MTT assay; format: functional, cell-based
DU-145 = experiment: Growth inhibition of human DU145 cells at 2 uM after 72 hrs by MTT assay relative to control; format: functional; conditions: DU-145, 72 h, read-out: GI

Compound: C[C@@H]1NC(=O)/C=C/[C@@H](O)CC[C@H](C)NC(=O)[C@H]2C[C@]1(O)NC1=C2C(=O)N[C@@H](C)C1
- IC50 (LNCaP C4-2B): 5.4 µM
- inhibition of growth at 2 µM (DU-145): 4.5%
